{
  "source": "patent US8952024B2",
  "about": "“Herbicidal pyrimidone derivatives” (E I du Pont de Nemours and Company, priority 2009, dated 2015)",
  "type_in_all_cases": "in vivo",
  "key": {"[1]": {"system": "Surinam grass (Brachiaria decumbens)", "assay": "Test B pre-/postemergence plant response", "description": "(§1) Seeds of plant species selected from blackgrass (Alopecurus myosuroides), downy bromegrass (Bromus tectorum), green foxtail (Setaria viridis), Italian ryegrass (Lolium multiflorum), wheat (Triticum aestivum), wild oat (Avena fatua), deadnettle (henbit deadnettle, Lamium amplexicaule), galium (catchweed bedstraw, Galium aparine), bermudagrass (Cynodon dactylon), Surinam grass (Brachiaria decumbens), cocklebur (Xanthium strumarium), corn (Zea mays), large crabgrass (Digitaria sanguinalis), woolly cupgrass (Eriochloa villosa), giant foxtail (Setaria faberii), goosegrass (Eleusine indica), johnsongrass (Sorghum halepense), kochia (Kochia scoparia), lambsquarters (Chenopodium album), morningglory (Ipomoea coccinea), nightshade (eastern black nightshade, Solanum ptycanthum), yellow nutsedge (Cyperus esculentus), pigweed (Amaranthus retroflexus), ragweed (common ragweed, Ambrosia elatior), Russian thistle (Salsola kali), soybean (Glycine max), sunflower (common oilseed sunflower, Helianthus annuus) and velvetleaf (Abutilon theophrasti) were planted into a blend of loam soil and sand and treated preemergence with test compounds formulated in a non-phytotoxic solvent mixture which included a surfactant.\n(§2) At the same time, plants selected from these crop and weed species and also winter barley (Hordeum vulgare), canarygrass (Phalaris minor), chickweed (Stellaria media) and windgrass (Apera spica-venti) were planted in pots containing Redi-Earth® planting medium (Scotts Company, 14111 Scottslawn Road, Marysville, Ohio 43041) comprising spaghnum peat moss, vermiculite, wetting agent and starter nutrients and treated with postemergence applications of some of the test chemicals formulated in the same manner. Plants ranged in height from 2 to 18 cm (1- to 4-leaf stage) for postemergence treatments.\n(§3) Treated plants and controls were maintained in a greenhouse for 13 to 15 days, after which time all treated plants were visually evaluated and compared to controls. Plant response ratings, summarized in Table B, are based on a scale of 0 to 100 where 0 is no effect and 100 is complete control. A dash (-) response means no test result."}, "[2]": {"system": "bermudagrass (Cynodon dactylon)", "assay": "Test B pre-/postemergence plant response", "description": "as §1, §2, §3"}, "[3]": {"system": "downy bromegrass (Bromus tectorum)", "assay": "Test B pre-/postemergence plant response", "description": "as §1, §2, §3"}, "[4]": {"system": "lambsquarters (Chenopodium album)", "assay": "Test B pre-/postemergence plant response", "description": "as §1, §2, §3"}, "[5]": {"system": "pigweed (Amaranthus retroflexus)", "assay": "Test B pre-/postemergence plant response", "description": "as §1, §2, §3"}, "[6]": {"system": "wheat (Triticum aestivum)", "assay": "Test B pre-/postemergence plant response", "description": "as §1, §2, §3"}, "[7]": {"system": "woolly cupgrass (Eriochloa villosa)", "assay": "Test B pre-/postemergence plant response", "description": "as §1, §2, §3"}, "[8]": {"system": "yellow nutsedge (Cyperus esculentus)", "assay": "Test B pre-/postemergence plant response", "description": "as §1, §2, §3"}, "[9]": {"system": "barnyardgrass (Echinochloa crus-galli)", "assay": "Test B flooded paddy test", "conditions": "for Plant response rating, Barnyardgrass: Flood (flooded paddy test), 13 to 15 days", "summary_of_the_method": "(§4)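 Plants were grown to the 2-leaf stage, then pots were flooded to 3 cm above the soil and compounds were applied directly into the paddy water. That depth was held throughout. After 13 to 15 days in a greenhouse, injury was visually rated against controls on a 0–100 scale.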"}, "[10]": {"system": "ducksalad (Heteranthera limosa)", "assay": "Test B flooded paddy test", "conditions": "for Plant response rating, Ducksalad: Flood (flooded paddy test), 13 to 15 days", "summary_of_the_method": "as §4"}, "[11]": {"system": "rice (Oryza sativa)", "assay": "Test B flooded paddy test", "conditions": "for Plant response rating, Rice: Flood (flooded paddy test), 13 to 15 days", "summary_of_the_method": "as §4"}, "[12]": {"system": "umbrella sedge (Cyperus difformis)", "assay": "Test B flooded paddy test", "conditions": "for Plant response rating, Sedge, Umbrella: Flood (flooded paddy test), 13 to 15 days", "summary_of_the_method": "as §4"}, "[13]": {"conditions": "250 g ai/ha, Preemergence, 0 to 100 scale"}, "[14]": {"conditions": "Postemergence, 62 g ai/ha, scale 0 (no effect) to 100 (complete control), 13 to 15 days"}, "[15]": {"conditions": "Postemergence, 125 g ai/ha, visual rating after 13 to 15 days, scale 0 (no effect) to 100 (complete control)"}, "[16]": {"conditions": "Preemergence, 31 g ai/ha, scale 0 to 100 (0 no effect, 100 complete control)"}, "[17]": {"conditions": "Preemergence, 125 g ai/ha, 0 to 100 scale"}, "[18]": {"conditions": "Postemergence, 31 g ai/ha, scale 0 to 100 (0 no effect, 100 complete control)"}, "[19]": {"conditions": "Postemergence, 250 g ai/ha, scale 0 to 100"}, "[20]": {"conditions": "Preemergence, 62 g ai/ha, scale 0 to 100 (0 no effect, 100 complete control)"}, "[21]": {"conditions": "250 g ai/ha, flooded paddy test, visual rating on 0 to 100 scale (0 no effect, 100 complete control) after 13 to 15 days"}, "[22]": {"conditions": "31 g ai/ha, scale of 0 to 100 where 0 is no effect and 100 is complete control"}, "[23]": {"conditions": "62 g ai/ha, scale 0 to 100, 0 is no effect, 100 is complete control"}, "[24]": {"conditions": "125 g ai/ha, scale 0 to 100, 0 is no effect, 100 is complete control"}},
  "data": [
    {"smiles": "Cc1ccccc1-n1c(-c2cccc(Cl)c2)ncc(C(=O)C2=C(O)CCCC2=O)c1=O", "note": "[Compound 36]", "values": [
      {"measurement": "Plant response rating, Surinam Grass", "setting": "[1]; [13]", "value": 100},
      {"measurement": "Plant response rating, Surinam Grass", "setting": "[1]; [14]", "value": 85},
      {"measurement": "Plant response rating, Surinam Grass", "setting": "[1]; [15]", "value": 85},
      {"measurement": "Plant response rating, Surinam Grass", "setting": "[1]; [16]", "value": 70},
      {"measurement": "Surinam Grass plant response rating", "setting": "[1]; [17]", "value": 100},
      {"measurement": "Plant response rating, Bermudagrass", "setting": "[2]; [13]", "value": 100},
      {"measurement": "Plant response rating, Bermudagrass", "setting": "[2]; [18]", "value": 90},
      {"measurement": "Plant response rating, Bermudagrass", "setting": "[2]; [14]", "value": 98},
      {"measurement": "Plant response rating, Bermudagrass", "setting": "[2]; [15]", "value": 100},
      {"measurement": "Bermudagrass plant response rating", "setting": "[2]; [19]", "value": 100},
      {"measurement": "Plant response rating, Bermudagrass", "setting": "[2]; [16]", "value": 95},
      {"measurement": "Plant response rating, Bermudagrass", "setting": "[2]; [20]", "value": 100},
      {"measurement": "Bermudagrass plant response rating", "setting": "[2]; [17]", "value": 100},
      {"measurement": "Plant response rating, Bromegrass, Downy", "setting": "[3]; [13]", "value": 10},
      {"measurement": "Plant response rating, Bromegrass, Downy", "setting": "[3]; [18]", "value": 30},
      {"measurement": "Plant response rating, Bromegrass, Downy", "setting": "[3]; [14]", "value": 30},
      {"measurement": "Plant response rating, Bromegrass, Downy", "setting": "[3]; [15]", "value": 45},
      {"measurement": "Bromegrass, Downy plant response rating", "setting": "[3]; [19]", "value": 65},
      {"measurement": "Plant response rating, Bromegrass, Downy", "setting": "[3]; [16]", "value": 0},
      {"measurement": "Plant response rating, Bromegrass, Downy", "setting": "[3]; [20]", "value": 0},
      {"measurement": "Bromegrass, Downy plant response rating", "setting": "[3]; [17]", "value": 0},
      {"measurement": "Plant response rating, Lambsquarters", "setting": "[4]; [13]", "value": 100},
      {"measurement": "Plant response rating, Lambsquarters", "setting": "[4]; [14]", "value": 100},
      {"measurement": "Plant response rating, Lambsquarters", "setting": "[4]; [15]", "value": 100},
      {"measurement": "Lambsquarters plant response rating", "setting": "[4]; [19]", "value": 100},
      {"measurement": "Plant response rating, Lambsquarters", "setting": "[4]; [16]", "value": 98},
      {"measurement": "Plant response rating, Lambsquarters", "setting": "[4]; [20]", "value": 100},
      {"measurement": "Lambsquarters plant response rating", "setting": "[4]; [17]", "value": 100},
      {"measurement": "Plant response rating, Pigweed", "setting": "[5]; [13]", "value": 100},
      {"measurement": "Plant response rating, Pigweed", "setting": "[5]; [14]", "value": 85},
      {"measurement": "Plant response rating, Pigweed", "setting": "[5]; [15]", "value": 90},
      {"measurement": "Plant response rating, Pigweed", "setting": "[5]; [16]", "value": 100},
      {"measurement": "Pigweed plant response rating", "setting": "[5]; [17]", "value": 100},
      {"measurement": "Plant response rating, Wheat", "setting": "[6]; [13]", "value": 0},
      {"measurement": "Plant response rating, Wheat", "setting": "[6]; [14]", "value": 5},
      {"measurement": "Plant response rating, Wheat", "setting": "[6]; [15]", "value": 5},
      {"measurement": "Plant response rating, Wheat", "setting": "[6]; [16]", "value": 0},
      {"measurement": "Wheat plant response rating", "setting": "[6]; [17]", "value": 0},
      {"measurement": "Plant response rating, Cupgrass, Woolly", "setting": "[7]; [13]", "value": 65},
      {"measurement": "Plant response rating, Cupgrass, Woolly", "setting": "[7]; [18]", "value": 85},
      {"measurement": "Plant response rating, Cupgrass, Woolly", "setting": "[7]; [14]", "value": 90},
      {"measurement": "Plant response rating, Cupgrass, Woolly", "setting": "[7]; [15]", "value": 95},
      {"measurement": "Cupgrass, Woolly plant response rating", "setting": "[7]; [19]", "value": 98},
      {"measurement": "Plant response rating, Cupgrass, Woolly", "setting": "[7]; [16]", "value": 0},
      {"measurement": "Plant response rating, Cupgrass, Woolly", "setting": "[7]; [20]", "value": 0},
      {"measurement": "Cupgrass, Woolly plant response rating", "setting": "[7]; [17]", "value": 10},
      {"measurement": "Plant response rating, Nutsedge, Yellow", "setting": "[8]; [13]", "value": 75},
      {"measurement": "Plant response rating, Nutsedge, Yellow", "setting": "[8]; [14]", "value": 20},
      {"measurement": "Plant response rating, Nutsedge, Yellow", "setting": "[8]; [15]", "value": 25},
      {"measurement": "Plant response rating, Nutsedge, Yellow", "setting": "[8]; [16]", "value": 0},
      {"measurement": "Nutsedge, Yellow plant response rating", "setting": "[8]; [17]", "value": 40},
      {"measurement": "Plant response rating, Flood, Barnyardgrass", "setting": "[9]; [21]", "value": 15},
      {"measurement": "Plant response rating, Barnyardgrass", "setting": "[9]; [22]", "value": 0},
      {"measurement": "Plant response rating, Barnyardgrass", "setting": "[9]; [23]", "value": 0},
      {"measurement": "Plant response rating, Barnyardgrass", "setting": "[9]; [24]", "value": 0},
      {"measurement": "Plant response rating, Flood, Ducksalad", "setting": "[10]; [21]", "value": 40},
      {"measurement": "Plant response rating, Ducksalad", "setting": "[10]; [22]", "value": 0},
      {"measurement": "Plant response rating, Ducksalad", "setting": "[10]; [23]", "value": 0},
      {"measurement": "Plant response rating, Ducksalad", "setting": "[10]; [24]", "value": 0},
      {"measurement": "Plant response rating, Flood, Rice", "setting": "[11]; [21]", "value": 35},
      {"measurement": "Plant response rating, Rice", "setting": "[11]; [22]", "value": 0},
      {"measurement": "Plant response rating, Rice", "setting": "[11]; [23]", "value": 0},
      {"measurement": "Plant response rating, Rice", "setting": "[11]; [24]", "value": 20},
      {"measurement": "Plant response rating, Flood, Sedge, Umbrella", "setting": "[12]; [21]", "value": 20},
      {"measurement": "Plant response rating, Sedge, Umbrella", "setting": "[12]; [22]", "value": 0},
      {"measurement": "Plant response rating, Sedge, Umbrella", "setting": "[12]; [23]", "value": 0},
      {"measurement": "Plant response rating, Sedge, Umbrella", "setting": "[12]; [24]", "value": 0}
    ]}
  ]
}
